Measurements taken from US5874472A, “Aminoacid derivatives as no synthase inhibitors” (Glaxo Wellcome Inc., priority 1993, dated 1999).

What was measured:
inducible human NOS = target: T1, inducible human NOS (Homo sapiens, UniProt P35228); experiment: Inhibition of inducible human NOS (citrulline formation), enzyme from cytokine-induced DLD-1 cells; type: biochemical; conditions: NOS from cytokine-induced DLD-1 cells; 1 μM L-[14C] arginine; pH 7.4; 10 μM FAD, no calmodulin/CaCl2
T1 construct: Purification of NOS cytokine-induced human colorectal adenocarcinoma DLD-1 cells; host or cells: DLD-1 cells induced with interferon-gamma, interleukin-6, tumor necrosis factor and interleukin-1beta; 2',5' ADP Sepharose purified
Method: (§1) NOS was assayed for the formation of citrulline following the procedure of Schmidt et al (PNAS 88 365-369, 1991) with these modifications: 20 mM Hepes, pH 7.4, 10 μg/ml calmodulin, 2.5 mM CaCl2 2.5 mM DTT, 125 μM NADPH 10 μM H4 Biopterin, 0.5 mg/ml BSA, and 1 μM L-[^14 C] arginine (New England Nuclear). Linearity of NOS-catalyzed rate was confirmed prior to kinetic studies that used single time point determination of rate.
Purification of NOS cytokine-induced human colorectal adenocarcinoma DLD-1 cells.
DLD-1 (ATCC No. CCL 221) were grown at 37° C., 5% CO2 in RPMI 1640 medium supplemented with L- glutamin, penicillin, streptomycin, and 10% heat-inactivated fetal bovine serum. Cells were grown to confluency and then the following cocktail of cytokines were added: 100 units/ml interferon-gamma, 200 units/ml interleukin-6, 10 ng/ml tumor necrosis factor, and 0.5 ng/ml interieukin-1β. At 10-24 hr post-induction, cells were harvested by scraping and washed with phosphate-buffered saline. Pelleted cells were stored at -70° C. Purification of the induced NOS was performed at 4° C. Crude extract was prepared by three cycles of freeze/thawing cells in TDGB (20 mM tris pH 7.5, 10% glycerol, 1 mM DTT, 2 μM tetrahydrobiopterin). Extract was applied directly onto a column of 2',5' ADP sepharse (Pharmacia). Resin was sequentially washed with TDGB, 0.5 M NaCl in TDGB, TDGB. NOS was eluted with 2 mM NADPH in TDGB. BSA was immediately added to give a final concentration of 1 mg/ml. NOS could be quick frozen and stored at -70° C. without loss in activity for at least 2 months.
Assay for inducible human NOs.
The formation of citrulline was assayed as described above except that 10 μM FAD was included and calmodulin and CaCl2 were excluded from the assay mix.

human brain NOS = target: T2, human brain NOS (Homo sapiens, UniProt P29475); experiment: Inhibition of human brain NOS (citrulline formation); type: biochemical; conditions: Schmidt et al. 1991 procedure, 10 μM tetrahydrobiopterin included
T2 construct: Purification of NOS from human brain; from tissue; host or cells: frozen human brain; ammonium sulfate, 2',5' ADP-agarose, calmodulin-agarose
Method: Purification of NOS from human brain
Human brain NOS was prepared using variations of the procedures of Schmidt et al. (PNAS 88 365-369, 1991), Mayer et al. (Fed. Eur. Biochem. Soc. 288 187-191, 1991), and Bredt and Snyder, (PNAS 87 682-685, 1990). Briefly, frozen human brain (1050 gm) was homogenized in cold buffer A (50 mM HEPES, pH 7.5 (pH at RT) and 0.5 mM EDTA, 10 mM DTT, 3.6 L total volume) with a polytron. The mixture was centrifuged at 13,000 g for 1 hour and the supernatant was removed (about 2050 ml). To the supernatant, solid aimmonium sulfate (365 gm, about 30% of saturation) was added and stirred slowly for a total of 30 minutes. The precipitate was pelleted at 13,000 g for 30 minutes and the pellet was resuspended in ~400 mls of buffer A with 4 μM tetrahydrobiopterin, 1 μM FAD (Sigma), 1 μM FMN (Sigma). The solution was centrifuged at 41,000 g for 60 minutes. The supernatant was removed, frozen by pouring into liquid nitrogen, and stored overnight at -70° C. The mixture was thawed and passed through a 2',5' ADP-agarose column (0.4 g swelled in buffer A) at 4 ml/min. The column was washed with 100 ml buffer A, 200 ml buffer A with 500 mM NaCl, 100 ml Buffer A, then 30 ml buffer A with 5 mM NADPH. To the enzyme eluted from the column was added glycerol to 15%, CaCl2 to 1 mM, tetrahydrobiopterin to 10 μM, tween to 0.1% and FAD, FMN to 1 μM each. The enzyme was then passed through a 1 ml calmodulin-agarose column which had been equilibrated in Buffer A, 15% glycerol and 1 mM CaCl2. The column was washed with 15 ml Buffer A, 15% glycerol and 1 mM CaCl2, 15 ml of Buffer A, 15% glycerol and 5 mM EDTA, and then enzyme activity was eluted with 3 ml of Buffer A, 15% glycerol and 5 mM EDTA, 1 M NaCl. To the enzyme was added tetrahydrobiopterin to 10 μM, FAD and FMN to 1 μM, and tween to 0.1%. This solution was concentrated by centriprep-30 to a volume of approximately 500 μl. Human NOS was prepared completely analogously except the calmodulin-agarose column was not used. Enzyme activity was determined as described by Schmidt et al. 1991, except that 10 μM tetrahydrobiopterin was included in the assay.

human placental NOS = target: T3, human placental NOS (Homo sapiens, UniProt P29474); experiment: Inhibition of human placental NOS (citrulline formation); type: biochemical; conditions: 1 μM L-[14C] arginine; pH 7.4; calmodulin, CaCl2
T3 construct: Purification of NOS from human placenta; from tissue; host or cells: fresh human placenta, amnion and chorion removed; ammonium sulfate and 2',5' ADP agarose purified
Method: It is noted that the NO synthase isolated from human placenta most probably represents the endothelial constitutive isoenzyme.
Purification of NOS from human placenta.
Amion and chorion were removed from fresh placenta, which was then rinsed with 0.9% NaCl. The tissue was homogenized in a Waring blender in 3 volumes of HEDS buffer (20 mM Hepes pH 7.8, 0.1 mM EDTA, 5 mM DTT, 0.2M sucrose) plus 0.1 mM PMSF.
The homogenate was filtered through cheesecloth and then centrifuged at 1000 g for 20 min. The supernatant was recentrifuged at 27500 g for 30 min. Solid ammonium sulfate was added to the supernatant to give 32% saturation. Precipitated protein was pelleted at 25,000 g and then redissolved in a minimal volume of HEDS buffer plus 0.1 mM PMSF, 10 μg/ml leupeptin and soybean trypsin inhibitor, and 1 μg/ml pepstatin. The redissolved pellet was centrigued at 15000 g for 10 min. To the supernatant was added 1/20 volume of 2',5' ADP agarose resin (Sigma), and the slurry was mixed slowly overnight. In morning, slurry was packed into a column. The resin was sequentially washed with HEDS, 0.5M NaCl in HEDS, HEDS, and then NOS was eluted with 10 mM NADPH in HEDS. The enzyme could be concentrated by ultrafiltration and quick frozen and stored at -70° C. without loss in activity for at least 6 months.
Assay for human placental NOS
as §1

[1] = phenylalanine-loaded rat; Chemical Abstracts vol. 89, 191755v; cited from earlier work
NO synthase = conditions: background statement; cited from earlier work

Row | Compound | Ki (inducible human NOS) [µM] | Ki (human brain NOS) [µM] | Ki (human placental NOS) [µM] | renal excretion of cystine [1] | renal excretion of lysine [1] | inhibition of the synthesis of NO from L-arginine (NO synthase) | selectivity between constitutive and inducible NO synthase (NO synthase)
1 | CNC(=N)NCc1ccc(CC(N)C(=O)O)s1 (racemic) [Compound 20, 3-(5-(N'-methylguanidino)methyl)-2-thienyl)-DL-alanine] | > 50 | > 50 | > 50 |  |  |  | 
2 | N=C(NCc1ccc(CC(N)C(=O)O)s1)NC1CC1 (racemic) [Compound 21, 3-(5-(N'-cyclopropylguanidino)methyl)-2-thienyl)-DL-alanine] | > 50 | > 50 | > 50 |  |  |  | 
3 | CSC(=N)NCc1ccc(CC(N)C(=O)O)s1 (racemic) [Compound 22, 3-(5-((S-methylisothioureido)methyl)-2-thienyl-DL-alanine] | > 50 | > 50 | > 50 |  |  |  | 
4 | CCSC(=N)NCc1ccc(CC(N)C(=O)O)s1 (racemic) [Compound 23, 3-(5-((S-ethylisothioureido)methyl)-2-thienyl)-DL-alanine] | ≤ 10 | ≤ 10 | ≤ 10 |  |  |  | 
5 | CSC(=N)NCc1ccc(C(N)C(=O)O)s1 (racemic) [Compound 24] | > 50 | > 50 | > 50 |  |  |  | 
6 | CCSC(=N)NCc1ccc(C(N)C(=O)O)s1 (racemic) [Compound 25] | ≤ 10 | ≤ 10 | ≤ 50 |  |  |  | 
7 | CSC(=N)Nc1cccc(CC(N)C(=O)O)c1 (racemic) [Compound 26, 3-(S-methylisothioureido)-DL-phenylalanine] | ≤ 50 | ≤ 10 | ≤ 10 |  |  |  | 
8 | CCSC(=N)Nc1cccc(CC(N)C(=O)O)c1 (racemic) [Compound 27, 3-(S-ethylisothioureido)-DL-phenylalanine] | ≤ 10 | ≤ 1 | ≤ 10 |  |  |  | 
9 | N=C(N)Nc1ccc(C[C@H](N)C(=O)O)cc1 [4-guanidino phenylalanine] |  |  |  | to some extent | increased |  | 
10 | N=C(N)NCc1ccc(C[C@H](N)C(=O)O)cc1 [4-guanidinomethylphenylalanine] |  |  |  | to some extent | increased |  | 
11 | NC(=S)Nc1ccc(C[C@H](N)C(=O)O)cc1 [Compound 28, 4-thioureido-L-phenylalanine] | > 50 | > 50 | > 50 |  |  |  | 
12 | CSC(=N)Nc1ccc(C[C@H](N)C(=O)O)cc1 [Compound 29, 4-(S-methylisothioureido)-L-phenylalanine] | > 50 | > 50 | > 50 |  |  |  | 
13 | CCSC(=N)Nc1ccc(C[C@H](N)C(=O)O)cc1 [Compound 30, 4-(S-ethylisothioureido)-L-phenylalanine] | ≤ 10 | ≤ 0.5 | ≤ 0.5 |  |  |  | 
14 | CN=C(N)NCCC[C@H](N)C(=O)O [L-NMMA, L-N-monomethyl-arginine] |  |  |  |  |  | can be inhibited | non-selective
15 | nitroarginine |  |  |  |  |  |  | non-selective
